Consider six compounds from ChEMBL document CHEMBL1123070, “Conformational properties of central nervous system active thyrotropin releasing hormone analogues: probing structure-activity relationships at the molecular level” (1985).

The species entered for the assay is Mus musculus. Kind of assay: Relative CNS activity against reserpine hypothermia in mice relatived to TRH. The format is functional, Central nervous system.
With `NC(=O)[C@H]1CCCN1C(=O)[C@H](Cc1c[nH]cn1)NC(=O)c1nc(O)nc(O)c1Br`, the Relative activity turned out to be 0.7. Consider `CCc1c(O)nc(O)nc1C(=O)N[C@@H](Cc1c[nH]cn1)C(=O)N1CCC[C@@H]1C(N)=O`, for which the Relative activity is 0.09.

On to `CC1SCC(C(=O)N[C@@H](Cc2c[nH]cn2)C(=O)N2CCC[C@@H]2C(N)=O)NC1=O` (stereo partly specified), for which the Relative activity is recorded as 83. In turn, `CCCc1c(O)nc(O)nc1C(=O)N[C@@H](Cc1c[nH]cn1)C(=O)N1CCC[C@@H]1C(N)=O` displayed a Relative activity of 0.8. The same measure for `C[C@@H]1SCC(C(=O)N[C@@H](Cc2c[nH]cn2)C(=O)N2CCC[C@@H]2C(N)=O)NC1=O` (stereo partly specified): 17; for `NC(=O)[C@@H]1CCCN1C(=O)[C@@H](Cc1c[nH]cn1)NC(=O)[C@@H]1CSC(=O)N1`: 0.8.
